In patent US10426169B2 (priority 2011, dated 2019) one finds chromatographic logP and Eff. % data, which are given here for eleven compounds.

Usually chromatographic logP stands for lipophilicity estimated from chromatographic retention. The low end stands for a more hydrophilic compound, the high end for a more lipophilic compound.

A short description of series [1]: physchem. As to conditions: pH 2.7.
Source text: The LC-MS determination in the acidic range is effected at pH 2.7 with 0.1% aqueous formic acid and acetonitrile (contains 0.1% formic acid) as eluents; linear gradient from 10% acetonitrile to 95% acetonitrile. • ^[b] The LC-MS determination in the neutral range is effected at pH 7.8 using 0.001 molar aqueous ammonium hydrogencarbonate solution and acetonitrile as eluents; linear gradient from 10% acetonitrile to 95% acetonitrile.
The calibration is effected with unbranched alkan-2-ones (having 3 to 16 carbon atoms) with known log P values (log P values determined on the basis of the retention times by linear interpolation between two successive alkanones).
The test system of series [2] is Phytophthora infestans. Format: in vivo, Phytophthora infestans on young tomato plants. As to conditions: protective, tomato plants, active ingredient concentration 100 ppm, evaluation 7 days after inoculation; 0% = control, 100% = no infection.

Turning to `CS(=O)(=O)Oc1ccccc1C1CC(c2csc(C3CCN(C(=O)CO)CC3)n2)=NO1` (stereo not drawn) [XXVIIa-142, 2-{3-[2-(1-glycoloylpiperidin-4-yl)-1,3-thiazol-4-yl]-4,5-dihydro-1,2-oxazol-5-yl}phenyl methanesulphonate], the chromatographic logP in series [1] came to 1.88.
Same read-out and setting: the same measure for `CC(C)(C)OC(=O)N1CCC(c2nc(C3=NOC(c4ccc(C(F)(F)F)cc4OS(C)(=O)=O)C3)cs2)CC1` (stereo not drawn) [XVI-143, tert-Butyl 4-[4-(5-{2-[(methylsulphonyl)oxy]-4-(trifluoromethyl)phenyl}-4,5-dihydro-1,2-oxazol-3-yl)-1,3-thiazol-2-yl]piperidine-1-carboxylate]: 4.36; for `CS(=O)(=O)Oc1cc(C(F)(F)F)ccc1C1CC(C(=O)CCl)=NO1` (stereo not drawn) [VIIa-a-143, 2-[3-(Chloroacetyl)-4,5-dihydro-1,2-oxazol-5-yl]-5-(trifluoromethyl)phenyl methanesulphonate]: 3.25; for `CN(C)CC(=O)N1CCC(c2nc(C3=NOC(c4ccccc4OS(C)(=O)=O)C3)cs2)CC1` (stereo not drawn) [X-1, 2-(3-{2-[1-(N,N-Dimethylglycyl)piperidin-4-yl]-1,3-thiazol-4-yl}-4,5-dihydro-1,2-oxazol-5-yl)phenyl methanesulphonate]: 1.48.
On to `CC(C)=NOCC(=O)N1CCC(c2nc(C3=NOC(c4ccccc4OS(C)(=O)=O)C3)cs2)CC1` (stereo not drawn) [I-12, 2-{3-[2-(1-{[(Propan-2-ylideneamino)oxy]acetyl}piperidin-4-yl)-1,3-thiazol-4-yl]-4,5-dihydro-1,2-oxazol-5-yl}phenyl methanesulphonate], for which the chromatographic logP in series [1] worked out at 2.36.
The same measure, in the same setting: under `COC(C)(OC)C(CC(O)c1ccccc1OCC#C[Si](C)(C)C)=NO` (stereo not drawn) [1-hydroxyl-4,4-dimethoxy-1-(2-{[3-(trimethylsilyl)prop-2-yn-1-yl]oxy}phenyl)pentan-3-one oxime] stands 3.19.
The same measure, in the same setting: the same measure for `C#CCOc1ccccc1C1CC(C(C)=O)=NO1` (stereo not drawn) [VIIIa-a-81, 1-[5-(2-{[prop-2-yn-1-yl]oxy}phenyl)-4,5-dihydro-1,2-oxazol-3-yl]ethanone]: 4.41.
Still for that read-out and setting: under `CC(C)(C)[Si](C)(C)OCC(=O)N1CCC(c2nc(C3=NOC(c4ccccc4OS(C)(=O)=O)C3)cs2)CC1` (stereo not drawn) [X-2, 2-(3-{2-[1-({[tert-butyl(dimethyl)silyl]oxy}acetyl)piperidin-4-yl]-1,3-thiazol-4-yl}-4,5-dihydro-1,2-oxazol-5-yl)phenyl methanesulphonate] stands 4.14.
Compound `CC(C)=NOCC(=O)N1CCC(c2nc(-c3cc(-c4ccccc4C=O)on3)cs2)CC1` [I-8, 2-{3-[2-(1-{[(Propan-2-ylideneamino)oxy]acetyl}piperidin-4-yl)-1,3-thiazol-4-yl]-1,2-oxazol-5-yl}benzaldehyde] showed a chromatographic logP in series [1] of 2.45. For the same compound, the Eff. % in series [2] was found to be 89%.
The compound `CS(=O)(=O)Oc1ccccc1C1CC(c2csc(C3CCN(C(=O)CCl)CC3)n2)=NO1` (stereo not drawn) [Xc-a-142, 2-(3-{2-[1-(Chloroacetyl)piperidin-4-yl]-1,3-thiazol-4-yl}-4,5-dihydro-1,2-oxazol-5-yl)phenyl methanesulphonate] yielded a chromatographic logP in series [1] of 2.42.
The same measure, in the same setting: under `CC(=O)OCC(=O)N1CCC(c2nc(C3=NOC(c4ccccc4OS(C)(=O)=O)C3)cs2)CC1` (stereo not drawn) [X-3, 2-{4-[4-(5-{2-[(Methylsulphonyl)oxy]phenyl}-4,5-dihydro-1,2-oxazol-3-yl)-1,3-thiazol-2-yl]piperidin-1-yl}-2-oxoethyl acetate] stands 2.18.
